Test results published in US4863920A, “Imidazodiazepine derivatives for treatment of disorders of the central nervous system” (Hoffmann-La Roche Inc., priority 1987, dated 1989).

Tests used:
[1] = Acute toxicity, single oral administration to rats; settings: rat, in vivo, read-out: Toxicity LD 50
Description: The results which have been obtained with representative members of the class of compound defined by formula I in the experiments described previously are compiled in the following Table. Moreover, the Table contains data concerning the acute toxicity of some of these compounds (LD50 in mg/kg in the case of single oral administration to rats).

[2] = biological target: central benzodiazepine receptors (cerebral cortex); test: Affinity to benzodiazepine receptors (inhibition of tritiated diazepam binding in cerebral cortex); settings: inhibition of specific binding of tritiated diazepam, read-out: Affinity to benzodiazepine receptors IC 50
Procedure: The affinity of compounds of formula I to the central benzodiazepine receptors was determined according to the method described in Life Science 20, 2101-2110 (1977) and Science 198, 849-851 (1977). According to this method, the inhibition of the binding of tritiated diazepam at the specific benzodiazepine receptors in the cerebral cortex by the respective test substances is ascertained. The IC50 ("50% inhibiting concentration") is that concentration of the respective test substance which brings about a 50 percent inhibition of the specific binding of the tritiated diazepam at the specific benzodiazepine receptors in the cerebral cortex.

[3] = test system: diazepam effect in the pentetrazole test; test: Antagonism of diazepam in the pentetrazole test; format: in vivo; settings: Mus musculus, po; mice; diazepam 5 mg/kg i.p. one hour before and compound p.o. 15 minutes before pentetrazole 120 mg/kg i.p.; read-out: Antagonism of diazepam ED 50
Procedure: This property was used to elaborate the test described hereinafter which permits the investigation of compounds capable of antagonizing the central properties of 1,4-benzodiazepines having tranquillizing activity.
(§1) The antagonistic activity of the compounds investigated, that is, their capability to counteract the effect of the diazepam in the pentetrazole test, is determined by counting the mice which suffer spasmodic seizures in this test. The ED50 denotes the amount of the respective test compound in mg/kg (p.o.) which in 50% of the animals counteracts the diazepam effect in the above test.

[4] = test system: pentetrazole-induced spasmodic seizures; test: Pentetrazole test, protection by diazepam; format: in vivo; settings: 5 mg/kg (i.p.) diazepam, supramaximal dosage; more than 900 mice
Procedure: as §1

[5] = test system: pentetrazole-induced spasmodic seizures; test: Antipentetrazole test (protection from pentetrazole seizures); format: in vivo; settings: Rattus norvegicus, po; female rats 60-80 g; p.o. 30 minutes before 120 mg/kg pentetrazole i.p.; 10 animals per dosage; Probit; read-out: Antipemtetrazole test ED 50
Procedure: The central properties of the compounds of formula I in accordance with the invention can be determined, for example, in the antipentetrazole animal model which is described hereinafter and which is generally recognized for recording anticonvulsant properties.
In this animal model, the compound under investigation is administered orally to female rats weighing 60-80 g and 30 minutes later there are administered i.p. 120 mg/kg of pentetrazole, which causes emprosthotonus and tonic stretchings of the fore and/or hind limbs in unprotected experimental animals 1-4 minutes after the injection. Ten experimental animals are used per dosage of test substance. After counting the protected experimental animals the ED50 is determined according to the Probit method. The ED50 is that dosage which protects 50% of the experimental animals from the spasmodic seizures caused by pentetrazole.

Row | SMILES | LD50 [1] [mg/kg] | IC50 [2] [nM] | ED50 [3] [mg/kg] | protection from spasmodic seizures in the pentetrazole test [4] | ED50 [5] [mg/kg]
1 | CC#Cc1ncn2c1CN(C)C(=O)c1c(Cl)cccc1-2 [C, 7-chloro-4,5-dihydro-5-methyl-3-(1-propynyl)-6H-imidazo[1,5-a][1,4]benzodiazepin-6-one] | > 5000 | 2.3 | 0.36 |  | 
2 | C=Cc1ncn2c1CN(C)C(=O)c1c(Cl)cccc1-2 [F, 7-chloro-4,5-dihydro-5-methyl-3-vinyl-6H-imidazo[1,5-a][1,4]benzodiazepin-6-one] | 1250 to 2500 | 7.6 | 1.2 |  | 
3 | CN1C(=O)CN=C(c2ccccc2)c2cc(Cl)ccc21 [diazepam] |  |  |  | protected all experimental animals from spasmodic seizures | 
4 | CN1Cc2c(C#CC(C)(C)O)ncn2-c2cccc(Br)c2C1=O [E, 7-bromo-4,5-dihydro-3-(3-hydroxy-3-methyl-1-butynyl)-5-methyl-6H-imidazo[1,5-a][1,4]benzodiazepin-6-one] | 500 to 1000 | 2 |  |  | 0.29
5 | C#Cc1ncn2c1[C@@H]1CCCN1C(=O)c1c(Cl)cccc1-2 [D, (S)-8-chloro-1-ethynyl-11,12,13,13a-tetrahydro-9H-imidazo[1,5-a]pyrrolo[2,1-c][1,4]benzodiazepin-9-one] | > 4000 | 2.4 | > 50 |  | 1.5
6 | C#Cc1ncn2c1CN(C)C(=O)c1cc(F)ccc1-2 [B, 3-ethynyl-8-fluoro-4,5-dihydro-5-methyl-6H-imidazo[1,5-a][1,4]benzodiazepine-6-one] | 312 to 625 | 24 | 1.5 |  | 
7 | C#Cc1ncn2c1CN(C)C(=O)c1c(Cl)cccc1-2 [A, 7-chloro-3-ethynyl-4,5-dihydro-5-methyl-6H-imidazo[1,5-a][1,4]benzodiazepin-6-one] | 312 to 625 | 4.5 | 0.24 |  | 
